Experimental data reported in patent US9988348B1, “Synthesis and antimicrobial use of a trithiocarbonate derivative” (KING SAUD UNIVERSITY, priority 2017, dated 2018).
Marks after values point to notes of the source that are not given here.

Test system: C. albicans
Test: in vivo antifungal activity, candidemia in mice infected with C. albicans
Design: species or system Albino male mice
Settings: C. albicans-infected mice; for daily body weight / % change in daily body weight / Food consumption / Mortality / Water consumption: oral 12 mg/kg then 6 mg/ml
Procedure: To confirm that the water soluble form of the compound 4 has a biological activity as a novel antimicrobial agent, effectiveness of the compound 4 as a drug to treat candidemia in mice was investigated. The experiment was performed in Experimental Animal Care Center (EACC), College of Pharmacy, King Saud University, Riyadh. Fifty Albino male mice, weighing nearly 30±2 gram were used. The mice were arranged in five groups, each including ten mice caged together, given water, and feed ad libitum. Negative control and control group were infected intravenously with 0.2 ml of C. albicans suspension (10^6 CFU/mouse) and 0.2 ml of sterile normal saline (0.89% Nacl) respectively. The group treated with standard drug (fluconazole) was infected intravenously with 0.2 ml of C. albicans suspension (10^6 CFU/mouse) and treated (orally) by 12 mg/kg of fluconazole (loading dose) on the first day followed by 6 mg/ml for 2 weeks. The group treated with the investigated compound 4 was infected intravenously with C. albicans at 10^6 CFU/mouse (0.2 ml) and treated (orally) by 12 mg/kg of the compound 4 (loading dose) on the first day followed by 6 mg/ml for 2 weeks. To study the biological effects of compound 4, a fifth group was designed. In this group the mice were treated intravenously (I. V) with 12 mg/kg of the compound 4 on the first day followed by 6 mg/ml for 2 weeks. All doses of the standard drug and compound 4 were given twice daily.
The effectiveness of the previous treatments on some biological concepts were evaluated. The biological parameters included daily body weight (gm), mortality (%), food consumption (g/day/mouse), water consumption (ml/day/mouse), serum glutamic oxaloacetic transaminase [SGOT(AST) (U/L)], serum glutamic-pyruvic transaminase [SGPT(ALT)(U/L)], alkaline phosphatase (U/L), gamma-glutamyl transferase (GGT) (U/L), bilirubin (mg/dl)], cholesterol (mg/dl), triglycerides (mg/dl), high-density lipoprotein (HDL) (mg/dl), very-low-density lipoprotein (VLDL) (mg/dl), low-density lipoprotein (LDL) (mg/dl), lactate dehydrogenase (LDH) (U/L), glucose (mg/dl), total protein (mg/dl), malondialdehyde (MDA) (nmol/g), nonprotein sulfyhydryl (NP-SH) (nmol/g). Addition hematologic constituents including white blood cells (WBC) (cell/mm^3), red blood cells (RBC) (10^6/mm^3), hemoglobin (HGB) (g/dL), HCT, Platelets (PLT) (10^3/mm^3), mean corpuscular volume (MCV) (fL), mean corpuscular hemoglobin (MCH) (pg), mean corpuscular hemoglobin concentration (MCHC) (g/dL), neutrophils (%), lymphocytes (%), eosinophils (%) and monocytes (%)] were evaluated (Classics Lowry et al. 1951; Utley et al. 1967; Sedlak et al. 1968). SGOT (AST), SGPT (ALT), ALP, GGT, bilirubin LDH and total protein were estimated using Reflotron Plus Analyzer and Roche kits (Roche Diagnostics GmbH, Mannheim Germany) and United diagnostic kits assay. Hematological tests were performed by Mindray BC-2800VET auto Hematology Analyzer.

[1] = blood, oral 12 mg/kg then 6 mg/ml for 2 weeks
[2] = liver tissue, oral 12 mg/kg then 6 mg/ml for 2 weeks
[3] = serum, oral 12 mg/kg then 6 mg/ml for 2 weeks

## OC(Cn1cncn1)(Cn1cncn1)c1ccc(F)cc1F [fluconazole, reference compound]
Day 0
  daily body weight: 19.70 ± 0.47 gm
Day 1
  % change in daily body weight: 0.50%
  Food consumption: 4.3 g/day/mice
  Mortality: 0%
  Water consumption: 4.8 g/day/mice
  daily body weight: 19.80 ± 0.35 gm
Day 2
  % change in daily body weight: 10.65%
  Food consumption: 4.3 g/day/mice
  Mortality: 0%
  Water consumption: 4.8 g/day/mice
  daily body weight: 21.80 ± 0.24 gm
Day 3
  % change in daily body weight: 13.19%
  Food consumption: 4.5 g/day/mice
  Mortality: 0%
  Water consumption: 4.9 g/day/mice
  daily body weight: 22.30 ± 0.21 gm
Day 4
  % change in daily body weight: 13.70%
  Food consumption: 4.6 g/day/mice
  Mortality: 0%
  Water consumption: 5.0 g/day/mice
  daily body weight: 22.40 ± 0.22 gm
Day 5
  % change in daily body weight: 21.31%
  Food consumption: 4.6 g/day/mice
  Mortality: 0%
  Water consumption: 5.2 g/day/mice
  daily body weight: 23.90 ± 0.31 gm
Day 6
  % change in daily body weight: 21.82%
  Food consumption: 4.7 g/day/mice
  Mortality: 0%
  Water consumption: 5.2 g/day/mice
  daily body weight: 24.00 ± 0.29 gm
Day 7
  % change in daily body weight: 22.95%
  Food consumption: 5.0 g/day/mice
  Mortality: 10%
  Water consumption: 5.1 g/day/mice
  daily body weight: 24.22 ± 0.22 gm
Day 8
  % change in daily body weight: 24.08%
  Food consumption: 5.1 g/day/mice
  Mortality: 10%
  Water consumption: 5.2 g/day/mice
  daily body weight: 24.44 ± 0.24 gm
Day 9
  % change in daily body weight: 24.36%
  Food consumption: 4.7 g/day/mice
  Mortality: 20%
  Water consumption: 5.2 g/day/mice
  daily body weight: 24.50 ± 0.18 gm
Day 10
  % change in daily body weight: 26.29%
  Food consumption: 5.00 g/day/mice
  Mortality: 20%
  Water consumption: 5.3 g/day/mice
  daily body weight: 24.87 ± 0.29 gm
Day 11
  % change in daily body weight: 28.17%
  Food consumption: 5.1 g/day/mice
  Mortality: 20%
  Water consumption: 5.3 g/day/mice
  daily body weight: 25.25 ± 0.25 gm
Day 12
  % change in daily body weight: −28.80%
  Food consumption: 5.62 g/day/mice
  Mortality: 20%
  Water consumption: 5.5 g/day/mice
  daily body weight: 25.37 ± 0.26 gm
Day 13
  % change in daily body weight: 31.97%
  Food consumption: 5.2 g/day/mice
  Mortality: 30%
  Water consumption: 5.4 g/day/mice
  daily body weight: 26.00 ± 0.30 gm
Day 14
  % change in daily body weight: 33.43%
  Food consumption: 5.2 g/day/mice
  Mortality: 30%
  Water consumption: 5.4 g/day/mice
  daily body weight: 26.28 ± 0.28 gm
Day 15
  % change in daily body weight: 35.60%
  Food consumption: 5.5 g/day/mice
  Mortality: 30%
  Water consumption: 5.7 g/day/mice
  daily body weight: 26.71 ± 0.28 gm
[1]
  Eosinophils Mean ± SE: 1.61 ± 0.10%
  HCT Mean ± SE: 35.05 ± 1.5
  HGB Mean ± SE: 11.1 ± 0.18 g/dL
  Lymphocytes Mean ± SE: 6.2 ± 0.1%
  MCH Mean ± SE: 28.2 ± 0.7 pg
  MCHC Mean ± SE: 24.3 ± 0.5 g/dL
  MCV Mean ± SE: 72.04 ± 2.6 fL
  Monocytes Mean ± SE: 1.06 ± 0.02%
  Neutrophils Mean ± SE: 25.9 ± 0.5%
  PLT Mean ± SE: 563.8 ± 17.4 10^3/mm^3
  RBC Mean ± SE: 7.50 ± 0.23 10^6/mm^3
  WBC Mean ± SE: 8233.2 ± 83.7 Cell/mm^3
[2]
  MDA: 2.33 ± 0.07***^b nmol/g
  NP-SH: 4.21 ± 0.18***^b nmol/g
  Total Protein: 92.72 ± 1.54***^b g/l
[3]
  Alkaline phosphatase Mean ± SE: 321.28 ± 6.91 U/L
  Bilirubin Mean ± SE: 0.75 ± 0.03 mg/dL
  Cholesterol Mean ± SE: 134.8 ± 3.6 mg/dL
  GGT Mean ± SE: 5.60 ± 0.17 U/L
  Glucose level Mean ± SE: 143.85 ± 2.47***^b mg/dl
  HDL Mean ± SE: 29.8 ± 0.9 mg/dL
  LDH Mean ± SE: 184.92 ± 5.08***^b U/L
  LDL Mean ± SE: 83.9 ± 3.3 mg/dL
  SGOT(AST) Mean ± SE: 143.28 ± 2.88 U/L
  SGPT(ALT) Mean ± SE: 50.48 ± 3.17 U/L
  Triglycerides Mean ± SE: 105.1 ± 2.2 mg/dL
  VLDL Mean ± SE: 21.0 ± 0.4 mg/dL
